Structures can show the parent of a compound that is named as a salt. One block for each molecule: values may come before it.
Assays:
[1] = cited from earlier work
[2] = cited from earlier work; remark: listed apart in the source
[3] = Comparison of salts of Formula I: physical properties tested and observed; type: physicochemical
Procedure: Physical properties of various salts of Formula I were tested and observed.

[4] = Hygroscopicity by dynamic vapor sorption (isothermal moisture sorption analysis); type: physicochemical; settings: for hygroscopicity (result in words): dynamic vapor sorption, 25° C.
Procedure: Hygroscopicity was assessed using a dynamic vapor sorption technique in which an accurately weighed sample is subjected to progressively changing water vapor pressure while simultaneously recording the weight change. The experiment is conducted isothermally at 25° C.
For 4-(5-methyloxazolo[4,5-b]pyridin-2-yl)-1,4-diazabicyclo[3.2.2]nonane benzoate Form A, less than 0.1% increase in weight was detected at 90±2% relative humidity during an isothermal (24.9±0.1° C.) moisture sorption analysis conducted from approximately 1% to 90% (±2%) humidity. Considering standard deviation, it is considered that increase in weight is less than 0.2%.

Molecule: O=C1Cc2cc(CCN3CCN(c4nsc5ccccc45)CC3)c(Cl)cc2N1 [Ziprasidone, 5-[2-[4-(1,2-benzisothiazol-3-yl)piperazin-1-yl]ethyl]-6-chloroindolin-2-one]
- protein binding [1]: extensive
- half-life ([2]; in vivo): 6 to 7 h
- Oral bioavailability ([2]; taken with food): approximately 60%

- hygroscopicity (result in words) [3]: undesirable hygroscopicity
Molecule: fumarate

- hygroscopicity (result in words) [3]: undesirable hygroscopicity
Molecule: L-lactate

Molecule: Cc1ccc2oc(N3CCN4CCC3CC4)nc2n1 [benzoate salt of Formula I, 4-(5-methyloxazolo[4,5-b]pyridin-2-yl)-1,4-diazabicyclo[3.2.2]nonane benzoate]
- increase in weight in moisture sorption analysis ([4]; at 90±2% relative humidity, isothermal 24.9±0.1° C., from approximately 1% to 90% (±2%) humidity): less than 0.1%
- hygroscopicity (result in words) [4]: relatively non-hygroscopic
- hygroscopicity (result in words) ([4]; listed as 4-(5-methyloxazolo[4,5-b]pyridin-2-yl)-1,4-diazabicyclo[3.2.2]nonane benzoate Fo): non-hygroscopic

Reference: patent US20080045512A1, “Benzoate salt of 4-(5-methyl-oxazolo[4,5-b]-pyridin-2-yl)-1,4-diazabicyclo[3.2.2]nonane” (Pfizer Inc., priority 2006, published 2008)
